Experimental data from patent EP0598011B1, “ECDYSTEROID DEPENDENT REGULATION OF GENES IN MAMMALIAN CELLS” (GENENTECH, INC., priority 1991, dated 1993).

What was measured:
Format in all cases: cell-based
[1] = target: T1, GGEc (Drosophila melanogaster, UniProt P34021); assay: Induction of GRE reporter G4M-77CO by chimeric receptor GGEc in 293 cells; details: for fold induction: 293 cells, reporter G4M-77CO, normalized to hGH, SD in parentheses
T1 construct: expressed in transfected cells; host or cells: 293 cells
T1 sequence (P34021 329-878): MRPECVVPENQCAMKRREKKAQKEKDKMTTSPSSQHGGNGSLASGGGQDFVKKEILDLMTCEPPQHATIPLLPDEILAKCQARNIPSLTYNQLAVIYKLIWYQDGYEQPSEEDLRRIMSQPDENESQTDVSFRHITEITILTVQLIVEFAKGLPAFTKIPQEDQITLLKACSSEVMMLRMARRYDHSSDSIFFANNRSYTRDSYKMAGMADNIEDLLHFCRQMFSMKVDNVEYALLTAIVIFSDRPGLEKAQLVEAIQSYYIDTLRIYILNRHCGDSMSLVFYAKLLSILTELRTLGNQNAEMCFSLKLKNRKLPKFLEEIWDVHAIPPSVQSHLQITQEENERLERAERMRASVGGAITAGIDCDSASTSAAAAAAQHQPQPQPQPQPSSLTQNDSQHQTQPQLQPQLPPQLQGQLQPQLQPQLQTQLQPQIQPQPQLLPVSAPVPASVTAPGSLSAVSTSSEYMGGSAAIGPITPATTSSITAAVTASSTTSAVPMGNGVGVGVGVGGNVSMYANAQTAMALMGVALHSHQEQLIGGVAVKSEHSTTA
From the text: I choose to determine if the ligand-binding domain of DHR23a could be used to regulate the DNA-binding and transactivation domains of the mammalian glucocorticoid receptor for the following reasons. First, in contrast to DHR23α, high affinity DNA-binding sites for the GR have been identified (M. Beato, Cell 56, 335 [1989]) and reporter genes containing these sites are very strongly regulated. Thus, the sensitivity of our assays could be increased. Secondly, these chimeric receptors could be utilized to selectively regulate endogenous genes in mammalian cells in response to ecdysteroids. I constructed a chimeric gene, GGEc, in which the sequences encoding the ligand-binding domain of the GR were replaced with that of DHR23α (Fig. 4A). […] However, expression of the GRE-containing reporter gene was induced more than 700 fold by GGEc in muristerone-treated cells.

[2] = target: T2, GXEc (Drosophila melanogaster, UniProt P34021); assay: Lex-operator reporter X4C-33CO with GXEc; details: receptor GXEc, SD in parentheses
T2 construct: expressed in transfected cells
T2 sequence (P34021 329-878): T1 sequence (P34021 329-878)
From the text: (§1) Such fusion constructs are expected to be useful in regulating the expression of exogenous genes introduced into transgenic mammals or mammalian cells. I next determined if the DHR23α ligand-binding domain could be used to regulate the activity of a DNA-binding domain not normally expressed in mammalian cells. I constructed the chimeric gene GLxEc by replacing the sequences coding for the GR DNA-binding domain in the GGEc fusion with those encoding the DNA-binding domain of the Escherichia coli LexA repressor (J. W. Little and S. A. Hill, Proc. Natl. Acad. Sci. U.S.A. 82, 2301 [1985]) (Fig. 4). A reporter gene, X4C-33CO was constructed that contains 4 copies of a 26-bp lex operator (R. Brent and M. Ptashne, Nature 312, 612 [1984]) at position -33 of the CMV promoter. GLxEc had no effect on the expression of a OC-33CO, a reporter gene lacking the lex operator (Fig. 6B).
(§2) Illustrated in Table 2 is the transcriptional activation by receptor-LexA fusion proteins. Effector plasmids encoding the indicated receptor proteins were transfected with a reporter gene either containing (X4C-33CO) or lacking (OC-33CO) lex-operators. […] The cells were incubated either with (+) or without (-) muristerone A. The fold induction was determined as described previously; the standard deviations are shown in parenthesis.

[3] = target: T3, VXEc (Drosophila melanogaster, UniProt P34021); assay: Lex-operator reporter X4C-33CO with VXEc; details: receptor VXEc, SD in parentheses
T3 construct: expressed in transfected cells
T3 sequence (P34021 329-878): T1 sequence (P34021 329-878)
From the text: Finally, I determined if the activity of DHR23α fusion proteins could be further enhanced by inclusion of a potent viral transactivation domain. I constructed VGEc and VLxEc fusion genes by replacing a portion of the GR N-terminal activation domain in GGEc and GLxEc, respectively, with the herpes virus VP16 acidic activation domain (I. Sadowski et al., […]. 335, 563 [1988]; D. J. Cousens, R. Greaves, C. R. Coding, and P. O'Hare, EMBO J. 8, 2337 [1989]) (Fig. 4A). In transfected cells, these proteins accumulated to similar levels as derivatives lacking the VP16 activation domain (Fig. 4B). Both VGEc and VLxEc acted in an ecdysteroid-dependent fashion to induce activity of the appropriate reporter gene (Tables 1 and 2). However, the activity of VGEc and VLxEc was 5 and 10 fold greater than GGEc and GLxEc, respectively (M..A. Labow, S.B. Baim, T. Shenk, and A. J. Levine, Mol. and Cell. Biol. 10, 3343 [1990]). Thus, the DHR23α ligand-binding domain can be used to regulate the activities of viral, mammalian and bacterial DNA-binding or transactivation domains.
Illustrated in Table 2 is the transcriptional activation by receptor-LexA fusion proteins. […] The cells were incubated either with (+) or without (-) muristerone A. The fold induction was determined as described previously; the standard deviations are shown in parenthesis.

[4] = target: T4, GXG (Rattus norvegicus, UniProt P06536); assay: Lex-operator reporter X4C-33CO with GXG; details: receptor GXG, SD in parentheses
T4 construct: expressed in transfected cells
T4 sequence (P06536 528-795): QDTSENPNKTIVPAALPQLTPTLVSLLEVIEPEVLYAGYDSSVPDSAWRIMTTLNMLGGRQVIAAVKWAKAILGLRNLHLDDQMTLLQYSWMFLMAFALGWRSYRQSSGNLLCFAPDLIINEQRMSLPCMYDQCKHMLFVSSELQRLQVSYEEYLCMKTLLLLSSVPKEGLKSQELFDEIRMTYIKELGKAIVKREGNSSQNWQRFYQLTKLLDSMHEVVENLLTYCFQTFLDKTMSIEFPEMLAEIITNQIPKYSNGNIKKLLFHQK
From the text: as §1, §2

CC(C)CCC(O)[C@](C)(O)[C@H]1CC[C@@]2(O)C3=CC(=O)C4(O)CC(O)C(O)C[C@]4(C)[C@H]3C(O)C[C@]12C (stereo partly shown) [muristerone A, 2,3,5,11,14,20,22-Heptahydroxy-7-cholesten-6-one]
fold induction [1]: more than 700 fold
fold induction ([1]; listed as M): 798 (57) fold
relative efficacies of ecdysteroids as agonists for the chimeric receptor ([1]; GRE reporter G4M-77CO): strong
fold induction [2]: 44.3 (8.3) fold
fold induction [3]: 563 (61) fold
fold induction [4]: 1.1 (0.2) fold
fold induction ([4]; listed as muristerone): not induced
